Laboratory results reported in patent publication US20240182531A1, “KV1.3 Blockers” (priority 2021, published 2024).
pIC50: −log10 of the molar value. Read-outs that look alike come from different tables or passages of the source. Where a SMILES comes first, the peptide text is derived from it. Bridges are numbered along the chain shown (N, C = ends). [ ]: non-standard residue; d: D form. Nle = CCCC[C@H](N)C(=O)O

Key:
human Kv1.1 = molecular target: T1, human Kv1.1 (Homo sapiens, UniProt Q09470); test: cell-based
T1 construct: expressed in transfected cells; host or cells: CHO
T1 sequence (Q09470 whole entry): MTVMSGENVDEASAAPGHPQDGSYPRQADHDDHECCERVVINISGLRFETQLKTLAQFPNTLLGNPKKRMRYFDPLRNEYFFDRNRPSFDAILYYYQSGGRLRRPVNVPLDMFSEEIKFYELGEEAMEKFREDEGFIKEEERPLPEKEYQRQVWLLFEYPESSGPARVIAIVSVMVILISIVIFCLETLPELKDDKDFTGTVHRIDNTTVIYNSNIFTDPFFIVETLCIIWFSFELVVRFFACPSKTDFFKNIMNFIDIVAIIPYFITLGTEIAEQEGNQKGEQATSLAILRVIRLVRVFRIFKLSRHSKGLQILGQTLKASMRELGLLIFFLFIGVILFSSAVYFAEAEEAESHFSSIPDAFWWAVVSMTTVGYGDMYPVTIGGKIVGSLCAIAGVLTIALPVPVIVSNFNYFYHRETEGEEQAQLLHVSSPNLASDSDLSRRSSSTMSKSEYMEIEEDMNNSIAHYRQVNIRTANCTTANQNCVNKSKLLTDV

human Kv1.2 = molecular target: T2, human Kv1.2 (Homo sapiens, UniProt P16389); test: cell-based
T2 construct: expressed in transfected cells; host or cells: CHO
T2 sequence (P16389 whole entry): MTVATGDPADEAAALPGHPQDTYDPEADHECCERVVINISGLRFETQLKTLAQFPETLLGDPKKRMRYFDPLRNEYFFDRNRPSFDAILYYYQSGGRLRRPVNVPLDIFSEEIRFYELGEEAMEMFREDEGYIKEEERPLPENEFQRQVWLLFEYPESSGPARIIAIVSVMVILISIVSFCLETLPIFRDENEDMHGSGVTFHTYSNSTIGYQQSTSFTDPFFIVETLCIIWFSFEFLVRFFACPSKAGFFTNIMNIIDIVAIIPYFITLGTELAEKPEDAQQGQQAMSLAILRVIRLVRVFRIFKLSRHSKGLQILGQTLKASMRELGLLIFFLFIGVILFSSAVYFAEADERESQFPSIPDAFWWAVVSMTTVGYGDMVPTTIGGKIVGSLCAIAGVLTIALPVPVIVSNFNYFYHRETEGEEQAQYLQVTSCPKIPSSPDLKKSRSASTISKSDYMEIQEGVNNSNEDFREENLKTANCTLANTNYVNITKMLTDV

human Kv1.6 = molecular target: T3, human Kv1.6 (Homo sapiens, UniProt P17658); test: cell-based
T3 construct: expressed in transfected cells; host or cells: CHO
T3 sequence (P17658 whole entry): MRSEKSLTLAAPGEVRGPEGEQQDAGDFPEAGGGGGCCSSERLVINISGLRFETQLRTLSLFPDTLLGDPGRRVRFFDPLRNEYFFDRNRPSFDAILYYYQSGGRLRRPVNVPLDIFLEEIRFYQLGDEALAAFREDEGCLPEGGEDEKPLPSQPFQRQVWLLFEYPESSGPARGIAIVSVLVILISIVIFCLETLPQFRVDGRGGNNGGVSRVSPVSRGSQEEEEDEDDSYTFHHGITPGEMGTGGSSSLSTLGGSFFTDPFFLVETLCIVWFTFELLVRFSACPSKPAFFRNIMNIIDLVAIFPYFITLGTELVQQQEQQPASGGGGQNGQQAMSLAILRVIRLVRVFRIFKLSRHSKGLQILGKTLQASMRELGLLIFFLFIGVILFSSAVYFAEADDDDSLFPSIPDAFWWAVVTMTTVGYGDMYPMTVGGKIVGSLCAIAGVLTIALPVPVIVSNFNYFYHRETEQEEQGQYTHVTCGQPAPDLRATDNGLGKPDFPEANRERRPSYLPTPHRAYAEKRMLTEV

Rat whole blood = Rat whole blood (Rattus norvegicus, UniProt P15384); format: cell-based
Rat whole blood, sequence (P15384 whole entry): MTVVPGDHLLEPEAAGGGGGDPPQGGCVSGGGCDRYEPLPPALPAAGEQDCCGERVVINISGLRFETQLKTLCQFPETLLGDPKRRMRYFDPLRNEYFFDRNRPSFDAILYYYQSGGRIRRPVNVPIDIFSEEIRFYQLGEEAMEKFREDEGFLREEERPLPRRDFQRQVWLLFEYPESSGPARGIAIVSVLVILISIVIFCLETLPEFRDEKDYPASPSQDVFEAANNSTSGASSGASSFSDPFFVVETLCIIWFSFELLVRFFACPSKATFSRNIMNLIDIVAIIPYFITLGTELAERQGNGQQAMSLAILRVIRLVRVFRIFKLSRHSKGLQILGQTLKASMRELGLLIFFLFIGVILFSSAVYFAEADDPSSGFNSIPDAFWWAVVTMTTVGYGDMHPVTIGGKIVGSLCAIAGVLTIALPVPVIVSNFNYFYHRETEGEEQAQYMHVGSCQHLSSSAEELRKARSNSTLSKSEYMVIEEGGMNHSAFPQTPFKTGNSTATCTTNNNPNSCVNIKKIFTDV

[1] = ratio of patch clamp IC50 values
[2] = IL-17A release, thapsigargin, 24 Hr, at least 2 replicates

| SMILES | Selectivity ratio Kv1.1/Kv1.3 (human Kv1.1; [1]) | Selectivity ratio Kv1.2/Kv1.3 (human Kv1.2; [1]) | Selectivity ratio Kv1.6/Kv1.3 (human Kv1.6; [1]) | pIC50 (Rat whole blood; [2]) | Selectivity ratio Kv1.1/Kv1.3 (human Kv1.1) | Selectivity ratio Kv1.2/Kv1.3 (human Kv1.2) | Selectivity ratio Kv1.6/Kv1.3 (human Kv1.6) | pIC50 (Rat whole blood) |
| --- | --- | --- | --- | --- | --- | --- | --- | --- |
| CCCC[C@@H]1NC(=O)[C@@H]2CSSC[C@H](NC(=O)[C@H](CCCNC(=N)N)NC(=O)[C@H](CCCC)NC(=O)[C@H](CC(=O)O)NC(=O)[C@@H](N)CCCC)C(=O)N[C@@H](CO)C(=O)N[C@@H](C)C(=O)N[C@@H](CO)C(=O)N[C@@H](C(C)C)C(=O)N[C@@H](CCC(=O)O)C(=O)N[C@H]3CSSC[C@H](NC(=O)[C@H](CCCCN)NC(=O)[C@H](CCCCN)NC(=O)[C@H](CC(N)=O)NC1=O)C(=O)N[C@@H](CCCCN)C(=O)N[C@H](C(=O)N[C@@H](Cc1ccc(O)cc1)C(=O)N1CCC[C@H]1C(=O)N[C@@H](CCCNC(=N)N)C(=O)O)CSSC[C@H](NC(=O)[C@H](CCCCN)NC(=O)[C@H](CCC(N)=O)NC(=O)[C@H](CCCCN)NC3=O)C(=O)N[C@@H](CC(C)C)C(=O)N[C@@H](CCCCN)C(=O)N[C@@H](C)C(=O)N[C@@H]([C@@H](C)CC)C(=O)NCC(=O)N[C@@H](CO)C(=O)N[C@@H]([C@@H](C)CC)C(=O)N[C@@H](Cc1ccccc1)C(=O)NCC(=O)N[C@@H](CCCCN)C(=O)N2 [compound 90] (H-[Nle]D[Nle]RCSASVECKQKCLKAIGSIFGKC[Nle]NKKCKCYPR-OH; disulfide 5-26, 11-31, 15-33) | >17800 | 11034 | >17800 | 9.26 |  |  |  |  |
| CC[C@H](C)[C@@H]1NC(=O)[C@H](C)NC(=O)[C@H](CCCCN)NC(=O)[C@H](CC(C)C)NC(=O)[C@@H]2CSSC[C@@H](C(=O)N[C@@H](Cc3ccc(O)cc3)C(=O)N3CCC[C@H]3C(=O)N[C@@H](CCCNC(=N)N)C(N)=O)NC(=O)[C@H](CCCCN)NC(=O)[C@@H]3CSSC[C@H](NC(=O)[C@H](CCC(=O)O)NC(=O)[C@H](C(C)C)NC(=O)[C@H](CO)NC(=O)[C@H](C)NC(=O)[C@H](CO)NC(=O)[C@@H](NC(=O)[C@H](CCCNC(=N)N)NC(=O)[C@H](CCSC)NC(=O)[C@H](CC(=O)O)NC(=O)[C@H](CCSC)NC(=O)[C@@H](N)CC(N)=O)CSSC[C@H](NC(=O)[C@H](CCCCN)NC(=O)CNC(=O)[C@H](Cc4ccccc4)NC(=O)[C@H]([C@@H](C)CC)NC(=O)[C@H](CO)NC(=O)[C@H](CCC(=O)O)NC1=O)C(=O)N[C@@H](CCSC)C(=O)N[C@@H](CC(N)=O)C(=O)N[C@@H](CCCCN)C(=O)N[C@@H](CCCCN)C(=O)N3)C(=O)N[C@@H](CCCCN)C(=O)N[C@@H](CCC(N)=O)C(=O)N[C@@H](CCCCN)C(=O)N2 [compound 27] (H-NMDMRCSASVECKQKCLKAIESIFGKCMNKKCKCYPR-NH2; disulfide 6-27, 12-32, 16-34) | >10200 | 615 | >10200 | 8.55 |  |  |  |  |
| CCCC[C@@H]1NC(=O)[C@@H]2CSSC[C@H](NC(=O)[C@H](CCCCN)NC(=O)[C@H](CO)NC(C)=O)C(=O)N[C@@H](CO)C(=O)N[C@@H](C)C(=O)N[C@@H](CO)C(=O)N[C@@H](C(C)C)C(=O)N[C@@H](CCC(=O)O)C(=O)N[C@H]3CSSC[C@H](NC(=O)[C@H](CCCCN)NC(=O)[C@H](CCCCN)NC(=O)[C@H](CC(N)=O)NC1=O)C(=O)N[C@@H](CCCCN)C(=O)N[C@H](C(=O)N[C@@H](Cc1ccc(O)cc1)C(=O)N1CCC[C@H]1C(=O)N[C@@H](CCCNC(=N)N)C(N)=O)CSSC[C@H](NC(=O)[C@H](CCCCN)NC(=O)[C@H](CCC(N)=O)NC(=O)[C@H](CCCCN)NC3=O)C(=O)N[C@@H](CC(C)C)C(=O)N[C@@H](CCCCN)C(=O)N[C@@H](C)C(=O)N[C@@H]([C@@H](C)CC)C(=O)NCC(=O)N[C@@H](CO)C(=O)N[C@@H]([C@@H](C)CC)C(=O)N[C@@H](Cc1ccccc1)C(=O)NCC(=O)N[C@@H](CCCCN)C(=O)N2 [compound 101] (Ac-SKCSASVECKQKCLKAIGSIFGKC[Nle]NKKCKCYPR-NH2; disulfide 3-24, 9-29, 13-31) | >3000 | 196 | 1451 | 9.44 |  |  |  |  |
| CCCC[C@@H]1NC(=O)[C@@H]2CSSC[C@H](NC(=O)[C@H](CCCNC(=N)N)NC(=O)[C@H](CCCC)NC(=O)[C@H](CCC(=O)O)NC(=O)[C@@H](NC(=O)[C@@H]3CCCN3)[C@@H](C)CC)C(=O)N[C@@H](CO)C(=O)N[C@@H](C)C(=O)N[C@@H](CO)C(=O)N[C@@H](C(C)C)C(=O)N[C@@H](CCC(=O)O)C(=O)N[C@H]3CSSC[C@H](NC(=O)[C@H](CCCCN)NC(=O)[C@H](CCCCN)NC(=O)[C@H](CC(N)=O)NC1=O)C(=O)N[C@@H](CCCCN)C(=O)N[C@H](C(=O)N[C@@H](Cc1ccc(O)cc1)C(=O)N1CCC[C@H]1C(=O)N[C@@H](CCCNC(=N)N)C(=O)O)CSSC[C@H](NC(=O)[C@H](CCCCN)NC(=O)[C@H](CCC(N)=O)NC(=O)[C@H](CCCCN)NC3=O)C(=O)N[C@@H](CC(C)C)C(=O)N[C@@H](CCCCN)C(=O)N[C@@H](C)C(=O)N[C@@H]([C@@H](C)CC)C(=O)NCC(=O)N[C@@H](CO)C(=O)N[C@@H]([C@@H](C)CC)C(=O)N[C@@H](Cc1ccccc1)C(=O)NCC(=O)N[C@@H](CCCCN)C(=O)N2 [compound 92] (H-PIE[Nle]RCSASVECKQKCLKAIGSIFGKC[Nle]NKKCKCYPR-OH; disulfide 6-27, 12-32, 16-34) |  |  |  |  | >7800 | 4561 | >7800 | 8.74 |
| CC[C@H](C)[C@@H]1NC(=O)[C@H](C)NC(=O)[C@H](CCCCN)NC(=O)[C@H](CC(C)C)NC(=O)[C@@H]2CSSC[C@@H](C(=O)N[C@@H](Cc3ccc(O)cc3)C(=O)N3CCC[C@H]3C(=O)N[C@@H](CCCNC(=N)N)C(=O)O)NC(=O)[C@H](CCCCN)NC(=O)[C@@H]3CSSC[C@H](NC(=O)[C@H](CCC(=O)O)NC(=O)[C@H](C(C)C)NC(=O)[C@H](CO)NC(=O)[C@H](C)NC(=O)[C@H](CO)NC(=O)[C@@H](N)CSSC[C@H](NC(=O)[C@H](CCCCN)NC(=O)CNC(=O)[C@H](Cc4ccccc4)NC(=O)[C@H]([C@@H](C)CC)NC(=O)[C@H](CO)NC(=O)CNC1=O)C(=O)N[C@@H](CCSC)C(=O)N[C@@H](CC(N)=O)C(=O)N[C@@H](CCCCN)C(=O)N[C@@H](CCCCN)C(=O)N3)C(=O)N[C@@H](CCCCN)C(=O)N[C@@H](CCC(N)=O)C(=O)N[C@@H](CCCCN)C(=O)N2 [compound 106] (H-CSASVECKQKCLKAIGSIFGKCMNKKCKCYPR-OH; disulfide 1-22, 7-27, 11-29) | >1400 | 878 | >1400 | 8.72 |  |  |  |  |
| CC[C@H](C)[C@@H]1NC(=O)[C@H](C)NC(=O)[C@H](CCCCN)NC(=O)[C@H](CC(C)C)NC(=O)[C@@H]2CSSC[C@@H](C(=O)N[C@@H](Cc3ccc(O)cc3)C(=O)N3CCC[C@H]3C(=O)N[C@@H](CCCNC(=N)N)C(N)=O)NC(=O)[C@H](CCCCN)NC(=O)[C@@H]3CSSC[C@H](NC(=O)[C@H](CCC(=O)O)NC(=O)[C@H](C(C)C)NC(=O)[C@H](CO)NC(=O)[C@H](C)NC(=O)[C@H](CO)NC(=O)[C@@H](NC(=O)[C@H](CCCNC(=N)N)NC(=O)[C@H](CCSC)NC(=O)[C@H](CC(=O)O)NC(=O)[C@H](CCSC)NC(=O)[C@@H](N)CC(N)=O)CSSC[C@H](NC(=O)[C@H](CCCCN)NC(=O)CNC(=O)[C@H](Cc4ccccc4)NC(=O)[C@H]([C@@H](C)CC)NC(=O)[C@H](CO)NC(=O)CNC1=O)C(=O)N[C@@H](CCSC)C(=O)N[C@@H](CC(N)=O)C(=O)N[C@@H](CCCCN)C(=O)N[C@@H](CCCCN)C(=O)N3)C(=O)N[C@@H](C)C(=O)N[C@@H](CCC(N)=O)C(=O)N[C@@H](CCCCN)C(=O)N2 [compound 34] (H-NMDMRCSASVECAQKCLKAIGSIFGKCMNKKCKCYPR-NH2; disulfide 6-27, 12-32, 16-34) | >22000 | 4897 | >22000 | 9.39 |  |  |  |  |
| CC[C@H](C)[C@@H]1NC(=O)[C@H](C)NC(=O)[C@H](CCCCN)NC(=O)[C@H](CC(C)C)NC(=O)[C@@H]2CSSC[C@@H](C(=O)N[C@@H](Cc3ccc(O)cc3)C(=O)N3CCC[C@H]3C(=O)N[C@@H](CCCNC(=N)N)C(N)=O)NC(=O)[C@H](CCCCN)NC(=O)[C@@H]3CSSC[C@H](NC(=O)[C@H](CCC(=O)O)NC(=O)[C@H](C(C)C)NC(=O)[C@H](CO)NC(=O)[C@H](C)NC(=O)[C@H](CO)NC(=O)[C@@H](NC(=O)[C@H](CCCNC(=N)N)NC(=O)[C@H](CCSC)NC(=O)[C@H](CC(=O)O)NC(=O)[C@H](CCSC)NC(=O)[C@@H](N)CC(N)=O)CSSC[C@H](NC(=O)[C@H](CCCCN)NC(=O)CNC(=O)[C@H](Cc4ccccc4)NC(=O)[C@H]([C@@H](C)CC)NC(=O)[C@H](CO)NC(=O)CNC1=O)C(=O)N[C@@H](CCSC)C(=O)N[C@@H](CC(N)=O)C(=O)N[C@@H](CCCCN)C(=O)N[C@@H](CCCCN)C(=O)N3)C(=O)N[C@@H](CCCCN)C(=O)N[C@@H](CCC(N)=O)C(=O)N[C@@H](CC(C)C)C(=O)N2 [compound 23] (H-NMDMRCSASVECKQLCLKAIGSIFGKCMNKKCKCYPR-NH2; disulfide 6-27, 12-32, 16-34) | >12700 | 1080 | >12700 | 8.49 |  |  |  |  |
